Measurements taken from ChEMBL document CHEMBL1158318, “Two 5-HT 1A Receptor-Interactive Tryptamine Derivatives from the Unripe Fruit of Evodia rutaecarpa” (J Nat Prod, 1997).

Each molecule was assayed against T1, 5-hydroxytryptamine receptor 1A (Homo sapiens, UniProt P08908) (assay: Displacement of [3H]8-OH-DPAT from 5HT1A receptor by vacuum filtration).
T1 sequence (P08908 whole entry): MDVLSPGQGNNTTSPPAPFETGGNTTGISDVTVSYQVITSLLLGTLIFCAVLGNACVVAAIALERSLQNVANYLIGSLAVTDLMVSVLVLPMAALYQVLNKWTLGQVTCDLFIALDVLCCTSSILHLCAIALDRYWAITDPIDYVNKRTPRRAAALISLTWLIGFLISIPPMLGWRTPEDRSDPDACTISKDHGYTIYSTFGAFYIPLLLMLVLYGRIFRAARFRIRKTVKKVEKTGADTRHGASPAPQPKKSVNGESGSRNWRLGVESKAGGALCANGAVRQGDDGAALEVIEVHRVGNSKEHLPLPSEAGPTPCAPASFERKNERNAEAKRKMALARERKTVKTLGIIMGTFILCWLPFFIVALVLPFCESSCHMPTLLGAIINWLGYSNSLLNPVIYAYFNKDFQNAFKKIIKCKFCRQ

Row | SMILES | Ki
1 | O=c1c(O[C@@H]2O[C@H](CO)[C@H](O)[C@H](O)[C@H]2O)c(-c2ccc(O)c(O)c2)oc2cc(O)cc(O)c12 [HYPEROSIDE] | > 100 µM
2 | CC1(C)O[C@H]2CC(=O)OC[C@]23[C@H]2CC[C@@]4(C)[C@H](c5ccoc5)OC(=O)[C@H]5O[C@]54[C@]2(C)C(=O)C[C@@H]13 [LIMONIN] | > 100 µM
3 | CNCC(O)c1ccc(O)cc1 (stereo not drawn) [OXEDRINE] | 63 µM
4 | O=c1c2ccccc2nc2n1CCc1c-2[nH]c2ccccc12 [RUTAECARPINE] | > 100 µM

Further lines, results first:

Row | Ki | SMILES
5 | > 100 µM | COc1cc(-c2oc3cc(O)cc(O)c3c(=O)c2O[C@@H]2O[C@H](CO)[C@H](O)[C@H](O)[C@H]2O)ccc1O
6 | 36 µM | C[n+]1c2n(c(=O)c3ccccc31)CCc1c-2[nH]c2ccccc12 [DEHYDROEVODIAMINE]
7 | > 100 µM | CN1c2ccccc2C(=O)N2CCc3c([nH]c4ccccc34)[C@H]21 [EVODIAMINE]
8 | 32 µM | CNc1ccccc1C(=O)N1CCc2c([nH]c3ccccc23)C1=O [RHETSININE]
